Laboratory results as given in PubChem BioAssay AID623935 (Southern Research Specialized Biocontainment Screening …, 2012).
The source made the active and inactive calls. No rule for the calls is given here.

Tested on: Chikungunya virus infected cells, antiviral inhibition
Experiment: Chikungunya virus antiviral inhibition, dose response, cell-based, secondary assay (AID 623935)

In the case of `CCN1CCN(Cc2nc3ccc([N+](=O)[O-])cc3c(=O)n2-c2ccccc2F)CC1`, the IC50 is reported as > 100 µM (inactive).

For `CN(C(=O)Cc1cccs1)c1nc2c(s1)CCCC2`, the IC50 was 3.16 µM.
